Results on four compounds are retold here after EP1501797B1, “3-(SUBSTITUTED AMINO)-1H-INDOLE-2-CARBOXYLIC ACID ESTER AND 3-(SUBSTITUTED AMINO)-BENZO[B]THIOPHENE-2-CARBOXYLIC ACID ESTER DERIVATIVES AS INTERLEUKIN-4 GENE EXPRESSION INHIBITORS” (Aventis Pharmaceuticals Inc., priority 2002, dated 2003).

By IC50 is commonly meant the concentration needed to halve the response being measured.

Counter-ions that a name gives are not always drawn. Starred links: 1 amine or outer side, 2 acyl side, 3 side chain; linkers in the order of their positions; H or OH if unused. Positions of bridges follow the written chain, without caps; N, C: chain ends. Non-standard residues stand in square brackets, D forms with d. Residues, ends and D or L forms follow the SMILES beside them. Chains are numbered I, II in the order given. Actinocin(9to1) = Cc1c2oc3c(C)ccc(C(=O)[*:1])c3nc-2c(C(=O)[*:2])c(N)c1=O; NMeV = CN[C@H](C(=O)O)C(C)C; Sar = CNCC(=O)O

Data set [1] has as its system IL-4. In words: Human primary Th2 cells, anti-CD3/anti-CD28 activated, IL-4 ELISA. The data set is classed as cell-based. Conditions: human primary Th2 cells, anti-CD3 and anti-CD28 (Table 5). Here is the method: (§1) Briefly, CD4^+CD45RA^+ T cells, isolated from donor peripheral blood mononuclear cells of healthy donors, are educated in the presence of anti-CD3/CD28 antibodies and various growth factors to obtain either a Thl-like or Th2-like phenotypes as determined by the known cytokine profiles of these two cell types.
(§2) Peripheral blood mononuclear cells (PBMC) are prepared from human blood by Ficoll-Hypacque (Pharmacia). The cells are washed two times in Hanks balanced salt solution (HBSS) and counted.
(§3) Naive T cells (CD4^+/CD45RA ) are prepared by negative selection method using following antibodies and Dynabeads: anti-CD8, anti-HLA-DR, (where HLA means human leucocyte antigen) anti-CD14, anti-CD16, anti-CD19, anti-CD45RO antibodies (all from R&D Systems, 1-2 µg/ml) are added to the cells, and the cells are kept on ice for 30 min. The cells are washed two times in HBSS, and goat anti- mouse Ig-beads, (bead:target ratio, 5:1) are added. The cells and beads are slowly rotated at 4°C for 20 min. (following the protocol supplied from Dynal). The supernatant is removed and fresh goat anti-mouse Ig-beads are added to the supernatant, which is slowly rotated at 4°C for 20 min. The cells are counted and phenotypically characterized by flow cytometric analysis.
(§4) CD4^+/CD45RA^+ cells at a density of 10^6/ml in RPMI, is prepared and added to RPMI medium containing 10% Hyclone serum/ glutamine and 1-2 µg/ml anti-CD28 Ab. The cells are split in two aliquots. For Th1 cells: anti-IL-4 Ab (1-2 µg/ml), IFN-γ (1 µg/ml, or 5000 units/ml) are added to the wells. For Th2 cells: IL-4 (100-200 ng/ml), anti-IFN-γ neutralizing Ab (1-2 µg/ml), anti-IL-12 neutralizing Ab (1-2 µg/ml) are added into the wells. […] The cells are transferred to fresh wells and grown in 200 units/ml IL-2 for 2 weeks by feeding them every other day with IL-2 containing medium and splitting the cultures 1:2 or 1:3 as needed. The degree of polarization is determined by intracellular staining of cells with anti-IFN-γ and anti-IL-4 antibodies from Pharmingen, and using flow cytometry from Becton Dickinson (BD), according to manufacturers description. The cells are stimulated with PHA and alloantigens at day 14 and 28 as described below. Eight days after the second allostimulation the cells can be used for compound screening or frozen for future use. For compound testing, large quantities of Th1 and Th2 cells derived from a given donor (NYTh1 and NYTh2) were expanded and frozen as aliquots in liquid nitrogen. The cells are thawed and cultured as and when needed. The thawed cells are stimulated with alloantigen/PHA combination. The cells are used for compound screening after 8-10 days in culture.
(§5) Re-stimulation by allogeneic cells: Human PBMCs, to be used as alloantigens, are isolated from freshly drawn blood by Ficoll separation. […] Cells are counted and diluted to a final concentration of 2 x 10^6/ml in medium containing 10 µg/ml PHA and 200 units/ml IL-2.
(§6) Ninetysix well Falcon tissue culture plates (Fisher Scientific) are coated with 100 microliters per well of 10 µg/ml anti-CD3 (PharMingen) antibody in phosphate buffered saline (PBS) and stored at 4°C one day before the experiment.
(§7) On the day of assay, anti-CD3 antibody coated plates are washed with PBS once to remove all soluble anti-CD3 antibody. […] All compounds and controls are assayed in triplicates.
(An ELISA detects its analyte on a solid surface through an enzyme-linked reagent.)

For the next data set, the system named is IL-5. Kind of data set: Human primary Th2 cells, anti-CD3/anti-CD28 activated, IL-5 ELISA. The data set is classed as cell-based. The settings on record: human primary Th2 cells, anti-CD3 and anti-CD28 (Table 5). As to the method: as §1, §2, §3, §4, §5, §6, §7
The subject of the next data set is IL-13. In words: Human primary Th2 cells, anti-CD3/anti-CD28 activated, IL-13 ELISA. The data set is classed as cell-based. Conditions: human primary Th2 cells, anti-CD3 and anti-CD28 (Table 5). As to the method: as §1, §2, §3, §4, §5, §6, §7
The next data set deals with IFN-γ. In words: Human primary Th2 cells, anti-CD3/anti-CD28 activated, IFN-γ ELISA. The settings on record: human primary Th2 cells, anti-CD3 and anti-CD28 (Table 5). The data set is classed as cell-based. Here is the method: as §1, §2, §3, §4, §5, §6, §7
The test system of the next data set is Human Th2 cells. Kind of data set: Human primary Th2 cells, proliferation (viability, MTS assay). The data set is classed as cell-based. The settings on record: human primary Th2 cells, anti-CD3 and anti-CD28 (Table 5); read-out: Prolif. IC50. Here is the method:
as §1, §2, §3, §4, §5, §6, §7
A general note: Formazan colour is commonly taken as a measure of viable cells.

Data set [2] concerns IL-4. In words: In vivo ovalbumin (OVA) mouse model, BALF IL-4. Also on record: species or system mice. Here is the method: This model is designed to determine the ability of a test article to modulate an antigen-induced pulmonary inflammatory cell accumulation in sensitized Balb/c mice from Charles River Laboratories. The mice are given a two week time period from arrival date prior to sensitizations.
On days 0, 7, 14, each animal is injected intraperitoneal (i.p.) with a 0.2 ml Ovalbumin Hydragel solution. Each animal receives 10 µg of Ovalbumin in 0.2 mL of Hydragel, aluminum hydroxide adsorptive gel containing 2% aluminum oxide. […] On day 22, BALF samples are collected from one group of animals and used for cytokine analysis. On day 24, BALF is obtained from a second group of animals and used for differential cell counts.
Test System: Female Babl/cJ mice (Jackson Laboratories), approximately 6-9 weeks old, each weighing approximately 20 to 25 grams, are divided into ten animals per group.
Sensitization Regimen: Mice are sensitized by an intraperitoneal injection of 10 µg ovalbumin (OVA) mixed in 4 mg aluminum hydroxide Al(OH)3 gel suspension in 0.2 ml sterile saline on Days 0, 7 and 14. This suspension is prepared one hour before intraperitoneal injection into each mouse. The animals are ready for OVA challenge on Day 21.
Antigen Challenge: Animals are exposed to aerosolized OVA on day 21 (5% w/v in sterile saline) for 20 minutes. The aerosol is generated by a PARI-Master nebulizer, the outlet of which is connected to a small Plexiglas® chamber containing the animals. Bronchoalveolar lavage is performed on Day 22.
Method of Study Performance: On day 24, 72 hours following aerosol OVA exposure, a separate group of animals are anesthetized with urethane (0.15 - 0.2 gm/kg) and the trachea is exposed and cannulated. Lungs are lavaged with 2 x 0.5 ml Hank's balanced salt solution without Ca^2+ and Mg^2+ (HBSS; Gibco, Grand Island, NY) containing 0.1% EDTA. Lavage fluid is recovered after 30 sec by gentle aspiration and pooled for each animal. Samples are centrifuged at 2000 rpm for 15 minutes at 5°C. After centrifugation, individual supernatants are stored frozen at -80°C. The resulting pellet is resuspended in 0.5 ml of HBSS containing 0.1% EDTA. Total cells and eosinophils are determined using a Technicon Hl and cytoslides, respectively.
Administration of the Test/Control Article: The test article and vehicle dosing preparations are administered once to each anesthetized mouse intranasally using a 200 µl pipette at 30-60 minutes prior to OVA challenge. Each animal receives 50 µl (25 µl/nostril) at each time point. Method of Euthanasia: Urethane overdose at in-life completion.
Compounds administered 30 minutes before aerosol ovalbumin challenge in ova sensitized mice. BALF harvested 24 hours after aerosol challenge. N = 6/group.
Mice (12 animals per group) are sensitized with 0.2 ml of an AlOH3 hydrogel suspension (2% AlOH3) containing 50 µg/ml ovalbumin on days 0, 7 and 14. […] The glucocorticosteroid budesonide (10 mg/kg) is included as a control. All compounds are given in 0.5% methylcellulose/0.2% Tween 80, intranasally (50µl). After the OVA challenge for 24 hours, the mice underwent bronchoalveolar lavage and IL-4 and IL-13 levels in the BALF are determined by ELISA. Another group of mice underwent bronchoalveolar lavage (72 hours after treatment) to determine the number of the eosinophils (*p<0.05, **p<0.01).
Compounds are given (30 mg/kg), intranasally, once, 30 min before OVA challenge unless noted otherwise. BAL fluids are collected 24 hours after OVA challenge and the cytokine levels are measured by standard ELISAs.

A further data set deals with eosinophils. Kind of data set: In vivo ovalbumin (OVA) mouse model, BALF eosinophils. The arrangement: species or system mice. The settings on record: i.n.
The next data set concerns Swiss 3T3 fibroblasts. In words: In vitro cytotoxicity assay on contact inhibited 3T3 fibroblasts (MTS). Conditions: for % control (viability of quiescent 3T3 cells): 2 day incubation. Here is the method:
A third assay utilized in the present invention involves an in vitro cytotoxicity assay. This assay is used to further characterize the compounds in order to assess toxic activities of compounds on contact inhibited, non-dividing 3T3 fibroblasts. Other toxicity assays may be used.
Contact inhibited Swiss 3T3 fibroblasts are purchased from ATCC. The cells are maintained in 1640 RPMI supplemented with 10% fetal bovine serum (Gibco).
On day of assay, cells are detached from flasks by trypsinization, washed in medium and counted. 100 microliters of 2.5 x 10^4 cells per well are plated into Falcon brand 96 well tissue culture plates and cells incubated at 37°C in presence of 5% CO2 for 2 days or until confluent.
[…] All compound dilutions are assayed in triplicate. […] Cells are returned to the incubator for 2 days.
After 2 day incubation, the 3T3 cells are assayed for viability using an MTS Assay Kit (Promega). Media is added to blank wells for background calculations. After 2 hours incubation in kit reagent, the optical density at 490 nm for each compound and control is determined by plate reader.
Results are expressed as percent cytotoxicity, i.e., (mean OD of compound wells - background OD)/ (mean OD of controls - background).
Note that starting concentration of CsA was 1 µM. […]

Procedure for eosinophils: On days 0, 7, 14, each animal is injected intraperitoneal (i.p.) with a 0.2 ml Ovalbumin Hydragel solution. Each animal receives 10 µg of Ovalbumin in 0.2 mL of Hydragel, aluminum hydroxide adsorptive gel containing 2% aluminum oxide. […] On day 24, BALF is obtained from a second group of animals and used for differential cell counts. […]
Sensitization Regimen: Mice are sensitized by an intraperitoneal injection of 10 µg ovalbumin (OVA) mixed in 4 mg aluminum hydroxide Al(OH)3 gel suspension in 0.2 ml sterile saline on Days 0, 7 and 14. […] The animals are ready for OVA challenge on Day 21. […]
Method of Study Performance: On day 24, 72 hours following aerosol OVA exposure, a separate group of animals are anesthetized with urethane (0.15 - 0.2 gm/kg) and the trachea is exposed and cannulated. […] Total cells and eosinophils are determined using a Technicon Hl and cytoslides, respectively. […]
Compounds are given (30 mg/kg), intranasally, once, 30 min before OVA challenge unless noted otherwise. […] From a parallel set of animals, BAL are collected at 48 hours and the number of eosinophils are determined.

Consider `O=C(O)c1[nH]c2ccccc2c1Nc1ccncc1` [Example 28 (maleate salt)], for which the IC50 in the data set with IL-4 [1] is 0.24 µM; in the data set on IL-5, over 10 µM; in the data set with IL-13, about 10 µM; in the data set on IFN-γ, over 10 µM; in the data set with Human Th2 cells it was over 10 µM. Besides, the “IL-4 % ctl At 24hours” value in the data set with IL-4 [2] (i.n., 10 mg/kg) turned out to be 57 % ctl; in the data set with IL-4 [2] (i.n., 12 mg/kg) it was 50 % ctl; in the data set with IL-4 [2] (i.n., 30 mg/kg, once, 30 min before OVA challenge), 34 % ctl; in the data set with IL-4 [2] (i.p., 30 mg/kg) it was 43 % ctl. Also, the results for the “Eos % ctl At 72hours” value in the data set on eosinophils (10 mg/kg) and in the data set with eosinophils (30 mg/kg) were 53 % ctl and 28 % ctl, respectively.
`Cc1c2oc3c(C)ccc(C(=O)N[C@@H]4C(=O)N[C@H](C(C)C)C(=O)N5CCC[C@H]5C(=O)N(C)CC(=O)N(C)[C@@H](C(C)C)C(=O)O[C@@H]4C)c3nc-2c(C(=O)N[C@@H]2C(=O)N[C@H](C(C)C)C(=O)N3CCC[C@H]3C(=O)N(C)CC(=O)N(C)[C@@H](C(C)C)C(=O)O[C@@H]2C)c(N)c1=O` [Actinomycin D] (I: T[dV]P[Sar][NMeV] / II: T[dV]P[Sar][NMeV]; ester I:1-I:C, II:1-II:C; linker I:N-II:N via Actinocin(9to1)): the “% control (viability of quiescent 3T3 cells)” value was found to be 79.0 % control with Swiss 3T3 fibroblasts (0.001 µM); 74.9 % control with Swiss 3T3 fibroblasts (0.003 µM); 67.2 % control in the data set with Swiss 3T3 fibroblasts (0.01 µM); 33.9 % control in the data set on Swiss 3T3 fibroblasts (0.03 µM); 28.2 % control in the data set with Swiss 3T3 fibroblasts (0.1 µM); 29.7 % control with Swiss 3T3 fibroblasts (3 µM). In addition, in the data set with Swiss 3T3 fibroblasts (10 µM), the “% control (viability of quiescent 3T3 cells)” value was 16.8 % control. Also, the “toxic effects on the viability of quiescent 3T3 cells (in words)” value with Swiss 3T3 fibroblasts (non-dividing 3T3 cells) is recorded as “effected the viability”.
As to `CN(C(=O)c1cccc(F)c1)c1c(C(=O)O)[nH]c2cc(Cl)cc(Cl)c12` [Reference Example 88, 3-((3-Fluorobenzoyl)methylamino)-4,6-dichloro-1H-indole-2-carboxylic acid], the IC50 is 2.5 µM in the data set on IL-4 [1]; over 10 µM with IL-5; over 10 µM with IL-13; over 10 µM with IFN-γ; over 10 µM in the data set with Human Th2 cells.
Turning to `CCOC(=O)c1[nH]c2cc(Cl)cc(Cl)c2c1NS(=O)(=O)c1ccccc1` [Example 90, 3-((Phenylsulfonyl)amino)-4,6-dichloro-1H-indole-2-carboxylic acid ethyl ester], the IC50 was 1 µM with IL-4 [1]; over 10 µM with IL-5; over 10 µM in the data set with IL-13; over 10 µM in the data set with IFN-γ; over 10 µM in the data set with Human Th2 cells.
